# Test results reported in patent publication US7417156B2, “Orally active, antimalarial, anticancer, artemisinin-derived trioxane dimers” (Johns Hopkins University, priority 2002, dated 2008).
# How the values were obtained:
# [1] = test system: chloroquine-sensitive P. falciparum (NF54); assay: Antimalarial activity in vitro, [3H]hypoxanthine incorporation; assay type: cell-based; details: Plasmodium falciparum, NF54, Table I; NF54 strain; read-out: IC50
# 60 cell line panel = assay type: cell-based; details: for Log10LC50 Delta / Log10LC50 Range / Log10TGI50 Delta / Log10TGI50 Range: 60 cell line panel
# HL-60(TB) = assay: NCI 60 cell line panel screen (SRB); assay type: cell-based, human; details: for Log10LC50: LC50: PG=−50; for Log10GI50: Leukemia, HL-60(TB)
# A549/ATCC = assay: NCI 60 cell line panel screen (SRB); assay type: cell-based, human
# NCI-H322M = assay type: cell-based; details: for Log10TGI50: TGI: PG=0; for Log10GI50: Non-Small Cell Lung Cancer, NCI-H322M
# NCI-H460 = assay: NCI 60 cell line panel screen (SRB); assay type: cell-based, human; details: for Log10LC50 / Log10TGI50: NCI-H460 (Non-Small Cell Lung Cancer); for Log10LC50: LC50: PG=−50; for Log10TGI50: TGI: PG=0; for Log10GI50: Non-Small Cell Lung Cancer, NCI-H460
# NCI-H522 = assay: NCI 60 cell line panel screen (SRB); assay type: cell-based, human; details: for Log10TGI50: NCI-H522 (Non-Small Cell Lung Cancer), TGI: PG=0; for Log10LC50: NCI-H-522 (Non-Small Cell Lung Cancer), LC50: PG=−50; for Log10GI50: Non-Small Cell Lung Cancer, NCI-H522
# HCT-116 = assay: NCI 60 cell line panel screen (SRB); assay type: cell-based, human; details: for Log10GI50: Colon Cancer, HCT-116; for Log10LC50 / Log10TGI50: HCT-116 (Colon Cancer); for Log10LC50: LC50: PG=−50; for Log10TGI50: TGI: PG=0
# HCT-15 = assay: NCI 60 cell line panel screen (SRB); assay type: cell-based, human; details: for Log10GI50: Colon Cancer, HCT-15; for Log10LC50 / Log10TGI50: HCT-15 (Colon Cancer); for Log10LC50: LC50: PG=−50; for Log10TGI50: TGI: PG=0
# HT29 = assay: NCI 60 cell line panel screen (SRB); assay type: cell-based, human; details: for Log10GI50: Colon Cancer, HT29; for Log10LC50: HT29 (Colon Cancer), LC50: PG=−50
# SF-539 = assay: NCI 60 cell line panel screen (SRB); assay type: cell-based, human; details: for Log10GI50: CNS Cancer, SF-539; for Log10LC50: LC50: PG=−50
# MALME-3M = assay: NCI 60 cell line panel screen (SRB); assay type: cell-based, human; details: for Log10LC50 / Log10TGI50: MALME-3M (Melanoma); for Log10LC50: LC50: PG=−50; for Log10TGI50: TGI: PG=0
# IGROVI = assay: NCI 60 cell line panel screen (SRB); assay type: cell-based, human; details: for Log10LC50 / Log10TGI50: IGROVI (Ovarian Cancer); for Log10LC50: LC50: PG=−50; for Log10TGI50: TGI: PG=0; for Log10GI50: Ovarian Cancer, IGROVI
# OVCAR-3 = assay: NCI 60 cell line panel screen (SRB); assay type: cell-based, human; details: for Log10LC50 / Log10TGI50: OVCAR-3 (Ovarian Cancer); for Log10LC50: LC50: PG=−50; for Log10TGI50: TGI: PG=0; for Log10GI50: Ovarian Cancer, OVCAR-3
# 786-0 = assay: NCI 60 cell line panel screen (SRB); assay type: cell-based, human; details: for Log10LC50: LC50: PG=−50; for Log10GI50: Renal Cancer, 786-0
# TK-10 = assay: NCI 60 cell line panel screen (SRB); assay type: cell-based, human; details: for Log10GI50: Renal Cancer, TK-10
# UO-31 = assay: NCI 60 cell line panel screen (SRB); assay type: cell-based, human; details: for Log10GI50: Renal Cancer, UO-31
# MCF7 = assay: NCI 60 cell line panel screen (SRB); assay type: cell-based, human; details: for Log10GI50: Breast Cancer, MCF7; for Log10LC50: LC50: PG=−50
# NCI/ADR-RES = assay: NCI 60 cell line panel screen (SRB); assay type: cell-based, human; details: for Log10GI50: Breast Cancer, NCI/ADR-RES; for Log10LC50 / Log10TGI50: NCI/ADR-RES (Breast Cancer); for Log10LC50: LC50: PG=−50; for Log10TGI50: TGI: PG=0
# COLO 205 = assay: NCI 60 cell line panel screen (SRB); assay type: cell-based, human
# SNB-19 = assay: NCI 60 cell line panel screen (SRB); assay type: cell-based, human
# T-47D = assay: NCI 60 cell line panel screen (SRB); assay type: cell-based, human
# [2] = mean value over the 60 cell line panel
# [3] = NCI-H322M (Non-Small Cell Lung Cancer)
smiles,measurement,setting,value
"C[C@@H]1CC[C@H]2[C@@H](C)C(CC(O)(COC(=O)CCC(=O)O)CC3OC4O[C@]5(C)CC[C@H]6[C@H](C)CC[C@@H]([C@H]3C)C46OO5)OC3O[C@]4(C)CCC1C32OO4 (stereo partly drawn) [Compound 9, tertiary alcohol primary succinate ester]",IC50,[1],3 nM
same,Log10GI50 Delta,60 cell line panel,1.28
same,Log10GI50 Range,60 cell line panel,3.94
same,Log10LC50 Delta,60 cell line panel,0.29
same,Log10LC50 Range,60 cell line panel,0.30
same,Log10TGI50 Delta,60 cell line panel,3.58
same,Log10TGI50 Range,60 cell line panel,4.00
same,growth inhibition in words,"60 cell line panel; colon cancer KM12, ovarian cancer OVCAR 3, breast cancer MDA-MB-435",selectively and strong inhibitory
same,Log10GI50 MG MID,60 cell line panel; mean over panel,−7.02
same,Log10LC50 MG MID,60 cell line panel; [2],−4.31 log10M
same,Log10TGI50 MG MID,60 cell line panel; [2],−4.72 log10M
same,Log10LC50,HL-60(TB); HL-60(TB) (Leukemia),>−4.30 log10M
same,Log10GI50,HL-60(TB),<−8.30
same,Log10LC50,"A549/ATCC; A549/ATCC (Non-Small Cell Lung Cancer), LC50: PG=−50",>−4.30 log10M
same,Log10TGI50,"A549/ATCC; A549/ATCC (Non-Small Cell Lung Cancer), TGI: PG=0",>−4.30 log10M
same,Log10GI50,"A549/ATCC; Non-Small Cell Lung Cancer, A549/ATCC",−4.86
same,Log10TGI50,NCI-H322M; [3],>−4.30 log10M
same,Log10GI50,NCI-H322M,−5.07
same,Log10LC50,NCI-H460,>−4.30 log10M
same,Log10TGI50,NCI-H460,>−4.30 log10M
same,Log10GI50,NCI-H460,<−8.30
same,Log10TGI50,NCI-H522,>−4.30 log10M
same,Log10LC50,NCI-H522,>−4.30 log10M
same,Log10GI50,NCI-H522,−4.91
same,Log10GI50,HCT-116,<−8.30
same,Log10LC50,HCT-116,>−4.30 log10M
same,Log10TGI50,HCT-116,>−4.30 log10M
same,Log10GI50,HCT-15,<−8.30
same,Log10LC50,HCT-15,>−4.30 log10M
same,Log10TGI50,HCT-15,−5.01 log10M
same,Log10GI50,HT29,<−8.30
same,Log10LC50,HT29,>−4.30 log10M
same,Log10GI50,SF-539,−4.90
same,Log10LC50,SF-539; SF-539 (CNS Cancer),>−4.30 log10M
same,Log10TGI50,"SF-539; SF-539 (CNS Cancer), TGI: PG=0",−4.50 log10M
same,Log10LC50,MALME-3M,>−4.30 log10M
same,Log10TGI50,MALME-3M,−5.14 log10M
same,Log10GI50,"MALME-3M; Melanoma, MALME-3M",<−8.30
same,Log10LC50,IGROVI,>−4.30 log10M
same,Log10TGI50,IGROVI,>−4.30 log10M
same,Log10GI50,IGROVI,−4.97
same,Log10LC50,OVCAR-3,>−4.30 log10M
same,Log10TGI50,OVCAR-3,<−8.30 log10M
same,Log10GI50,OVCAR-3,<−8.30
same,Log10LC50,786-0; 786-0 (Renal Cancer),>−4.30 log10M
same,Log10GI50,786-0,<−8.30
same,Log10GI50,TK-10,<−8.30
same,Log10LC50,"TK-10; TK-10 (Renal Cancer), LC50: PG=−50",>−4.30 log10M
same,Log10TGI50,"TK-10; TK-10 (Renal Cancer), TGI: PG=0",−4.60 log10M
same,Log10GI50,UO-31,−5.05
same,Log10LC50,"UO-31; UO-31 (Renal Cancer), LC50: PG=−50",>−4.30 log10M
same,Log10TGI50,"UO-31; UO-31 (Renal Cancer), TGI: PG=0",>−4.30 log10M
same,Log10GI50,MCF7,<−8.30
same,Log10LC50,MCF7; MCF7 (Breast Cancer),>−4.30 log10M
same,Log10TGI50,"MCF7; MCF7 (Breast Cancer), TGI: PG=0",>−4.30 log10M
same,Log10GI50,NCI/ADR-RES,−5.61
same,Log10LC50,NCI/ADR-RES,>−4.30 log10M
same,Log10TGI50,NCI/ADR-RES,>−4.30 log10M
"CC(=O)O[C@H]1C(=O)[C@@]2(C)[C@H]([C@H](OC(=O)c3ccccc3)[C@]3(O)C[C@H](OC(=O)[C@H](O)[C@@H](NC(=O)c4ccccc4)c4ccccc4)C(C)=C1C3(C)C)[C@]1(OC(C)=O)CO[C@@H]1C[C@@H]2O [Paclitaxel, paclitaxel, reference compound]",Log10GI50 Delta,60 cell line panel,−10.15
same,Log10GI50 Range,60 cell line panel,8.00
same,Log10LC50 Delta,60 cell line panel,−4.06
same,Log10LC50 Range,60 cell line panel,.045
same,Log10TGI50 Delta,60 cell line panel,−4.54
same,Log10TGI50 Range,60 cell line panel,7.20
same,Log10LC50,HL-60(TB); HL-60(TB) (Leukemia),>−4.53 log10M
same,Log10TGI50,"HL-60(TB); HL-60(TB) (Leukemia), TGI: PG=0",−4.53 log10M
same,Log10GI50,HL-60(TB),−11.57
same,Log10LC50,"NCI-H322M; NCI-H322M (Non-Small Cell Lung Cancer), LC50: PG=−50",>−4.00 log10M
same,Log10TGI50,NCI-H322M; [3],−4.46 log10M
same,Log10GI50,NCI-H322M,−10.12
same,Log10LC50,NCI-H460,>−4.00 log10M
same,Log10TGI50,NCI-H460,−4.92 log10M
same,Log10GI50,NCI-H460,−12.16
same,Log10TGI50,NCI-H522,−11.20 log10M
same,Log10LC50,NCI-H522,>−4.00 log10M
same,Log10GI50,NCI-H522,<−13.00
same,Log10LC50,"COLO 205; COLO 205 (Colon Cancer), LC50: PG=−50",>−4.41 log10M
same,Log10GI50,"COLO 205; Colon Cancer, COLO 205",−11.07
same,Log10GI50,HCT-116,<−13.00
same,Log10LC50,HCT-116,>−4.00 log10M
same,Log10TGI50,HCT-116,−4.82 log10M
same,Log10GI50,HCT-15,−6.37
same,Log10LC50,HCT-15,>−4.00 log10M
same,Log10TGI50,HCT-15,>−4.00 log10M
same,Log10GI50,HT29,<−13.00
same,Log10LC50,HT29,−4.39 log10M
same,Log10GI50,SF-539,−11.09
same,Log10LC50,SF-539; SF-539 (CNS Cancer),>−4.00 log10M
same,Log10GI50,"SNB-19; CNS Cancer, SNB-19",−8.98
same,Log10LC50,"SNB-19; SNB-19 (CNS Cancer), LC50: PG=−50",>−4.00 log10M
same,Log10TGI50,"SNB-19; SNB-19 (CNS Cancer), TGI: PG=0",>−4.00 log10M
same,Log10LC50,MALME-3M,−4.11 log10M
same,Log10TGI50,MALME-3M,−4.46 log10M
same,Log10LC50,IGROVI,>−4.00 log10M
same,Log10TGI50,IGROVI,−4.19 log10M
same,Log10GI50,IGROVI,−8.61
same,Log10LC50,OVCAR-3,>−4.00 log10M
same,Log10TGI50,OVCAR-3,−4.55 log10M
same,Log10GI50,OVCAR-3,−10.40
same,Log10LC50,786-0; 786-0 (Renal Cancer),>−4.00 log10M
same,Log10TGI50,"786-0; 786-0 (Renal Cancer), TGI: PG=0",>−4.00 log10M
same,Log10GI50,786-0,−8.01
same,Log10GI50,TK-10,−7.89
same,Log10GI50,UO-31,−6.09
same,Log10GI50,MCF7,−11.69
same,Log10LC50,MCF7; MCF7 (Breast Cancer),>−4.00 log10M
same,Log10GI50,NCI/ADR-RES,−8.48
same,Log10LC50,NCI/ADR-RES,>−4.00 log10M
same,Log10TGI50,NCI/ADR-RES,>−4.00 log10M
same,Log10GI50,"T-47D; Breast Cancer, T-47D",−9.81
same,Log10LC50,"T-47D; T-47D (Breast Cancer), LC50: PG=−50",>−4.00 log10M
